From article PMC6905430 (Biochemistry, 2019)

Columns and labels:
wild type DXP synthase = wild type DXP synthase (Escherichia coli, UniProt P77488); test: Anaerobic limited trypsinolysis in the presence of MAP; design: species or system E. coli; conditions: preincubation with MAP 65 μM, 45 min, 6 °C; trypsin 4.5 ng/μL; up to 150 min
H299N DXP synthase = H299N DXP synthase (Escherichia coli, UniProt P77488, H299N); format: biochemical, E. coli
H49A DXP synthase = H49A DXP synthase (Escherichia coli, UniProt P77488, H49A); format: biochemical, E. coli
H49N DXP synthase = H49N DXP synthase (Escherichia coli, UniProt P77488, H49N); format: biochemical, E. coli; conditions: read-out: Km^app,pyruvate; anaerobic; pyruvate varied, D-GAP 500 μM; n = 3
H299A DXP synthase = H299A DXP synthase (Escherichia coli, UniProt P77488, H299A); format: biochemical, E. coli; conditions: H299A vs wild type
[1] = read-out: Km^app,pyruvate, anaerobic, pyruvate varied, D-GAP 500 μM, n = 3

## COP(=O)(O)C(C)=O [MAP, methylacetylphosphonate]
Wild type DXP synthase
  effect of MAP on trypsinolysis profile: K313 is protected from typsinolysis

## CC(=O)C(=O)O [pyruvate]
H299N DXP synthase; H299N vs wild type
  decrease in kcat/Km^pyruvate relative to wild type DXP synthase: 185 fold
H299N DXP synthase; [1]
  Km: 1080 µM
H49A DXP synthase; H49A vs wild type
  decrease in kcat/Km^pyruvate compared to wild type DXP synthase: 76 fold
H49A DXP synthase; [1]
  Km: 1070 µM
H49N DXP synthase
  Km: 1610 µM
H299A DXP synthase
  decrease in kcat/Km^pyruvate relative to wild type DXP synthase: 846 fold
